By IC50 is commonly meant the midpoint of a concentration-inhibition curve.

The values below come from PMC3793931 (PLoS ONE, 2013).

For one data set, the system named is 5-LO. The settings on record: cited from earlier work.
For a further data set, the target named is T1, human recombinant 5-LO (Homo sapiens, UniProt P09917).
T1 sequence (P09917 1-674): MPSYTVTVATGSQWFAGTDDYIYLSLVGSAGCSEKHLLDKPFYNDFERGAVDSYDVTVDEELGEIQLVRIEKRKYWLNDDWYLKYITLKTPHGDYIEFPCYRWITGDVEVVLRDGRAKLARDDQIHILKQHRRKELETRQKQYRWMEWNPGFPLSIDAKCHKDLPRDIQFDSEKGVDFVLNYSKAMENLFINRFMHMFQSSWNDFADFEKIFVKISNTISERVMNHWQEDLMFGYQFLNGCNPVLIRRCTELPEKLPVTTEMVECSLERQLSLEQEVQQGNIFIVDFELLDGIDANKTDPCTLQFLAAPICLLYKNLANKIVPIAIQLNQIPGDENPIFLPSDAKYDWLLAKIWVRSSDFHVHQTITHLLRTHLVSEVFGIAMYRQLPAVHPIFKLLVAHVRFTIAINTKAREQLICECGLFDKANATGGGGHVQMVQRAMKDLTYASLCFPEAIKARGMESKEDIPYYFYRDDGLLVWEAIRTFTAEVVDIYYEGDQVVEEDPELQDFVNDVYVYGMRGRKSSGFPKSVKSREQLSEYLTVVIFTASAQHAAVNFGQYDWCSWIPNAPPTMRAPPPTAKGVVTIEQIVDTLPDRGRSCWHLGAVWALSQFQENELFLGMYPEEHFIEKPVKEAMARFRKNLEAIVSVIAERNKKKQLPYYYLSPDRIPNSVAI
Description: cell-free 5-LO activity assay with purified human recombinant 5-LO.

The target of another data set is T2, 5-LO in PMNL (Homo sapiens, UniProt P09917).
T2 sequence (P09917 1-674): T1 sequence (P09917 1-674)
Description: cell-based. The settings on record: intact human PMNL, A23187 2.5 µM + 20 µM AA, n=3, >10 = significant inhibition at 10 µM, >>10 = no significant inhibition at 10 µM.

The target in data set [1] is T3, microsomal prostaglandin E2 synthase-1 (mPGES-1) (Homo sapiens, UniProt O14684).
T3 sequence (O14684 1-152): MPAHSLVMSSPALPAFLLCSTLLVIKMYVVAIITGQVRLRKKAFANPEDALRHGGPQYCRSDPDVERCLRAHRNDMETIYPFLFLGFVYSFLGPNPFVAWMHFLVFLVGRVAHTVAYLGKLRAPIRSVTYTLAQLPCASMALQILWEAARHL
Description: biochemical. The settings on record: cell-free, A549 microsomes; n=3; >10 = significant inhibition at 10 µM, >>10 = no significant inhibition at 10 µM.
Description: Preparations of human A549 cells and determination of mPGES-1 activity was performed as described previously [10]. In brief, cells were treated with 1 ng/mL interleukin-1β (IL-1β) for 48 h at 37 °C, 5% CO2. Cells were harvested, sonicated and the homogenate was subjected to differential centrifugation at 10,000×g for 10 min and 174,000×g for 1 h at 4 °C. The pellet (microsomal fraction) was resuspended in 1 ml homogenization buffer (0.1 M potassium phosphate buffer, pH 7.4, 1 mM phenylmethanesulfonyl fluoride, 60 µg/mL soybean trypsin inhibitor, 1 µg/mL leupeptin, 2.5 mM glutathione, and 250 mM sucrose), and the total protein concentration was determined. Microsomal membranes were diluted in potassium phosphate buffer (0.1 M, pH 7.4) containing 2.5 mM glutathione. Test compounds or vehicle (0.1% DMSO) were added, and after 15 min at 4 °C reaction (100 µl total volume) was initiated by addition of PGH2 at the indicated concentrations. After 1 min at 4 °C, the reaction was terminated using stop solution (100 µl; 40 mM FeCl2, 80 mM citric acid, and 10 µM 11β-PGE2 as internal standard). PGE2 was separated by solid-phase extraction and analyzed by RP-HPLC as described previously [10].

In the next data set the test system is COX-2. Also on record: method as in PMID 19289158. The settings on record: at 45 µM; cited from earlier work.
A further data set concerns COX-1. Also on record: method as in PMID 19289158. The settings on record: at 45 µM; cited from earlier work.
The subject of the next data set is NF-κB. The data set can be described thus: NF-κB transactivation, luciferase reporter in TNF-α-stimulated HEK-293/NF-κB-luc cells. Type of data set: cell-based. The following applies: Homo sapiens. As to the method: The transactivation of a NF-κB-driven luciferase reporter gene was quantified in HEK-293/NF-κB-luc cells (Panomics, RC0014) as previously described. […] Six hours later cells were seeded in 96-well plates and incubated at 37°C and 5% CO2 overnight. On the next day, the medium was exchanged with serum-free DMEM and cells were treated with the respective test compounds dissolved in DMSO. To account for potential unspecific effects of the solvent, the final concentration of DMSO was always adjusted to 0.1%. One hour after treatment the cells were stimulated with 2 ng/mL human recombinant TNF-α for 6 h, and after a lysis step the luminescence of the firefly luciferase and the fluorescence of EGFP were quantified on a GeniosPro plate reader (Tecan; Grödig, Austria). The luciferase signal derived from the NF-κB reporter was normalized by the EGFP-derived fluorescence to account for differences in cell number.
To estimate of cell viability one part of the experiments were performed in cells that were not transfected with pEGFP-C1, but instead stained for 1 h in serum-free medium supplemented with 2 μM Cell Tracker Green CMFDA (C2925; Invitrogen) as described. Since this fluorescent probe is retained inside living cells, it can be used to monitor cell membrane integrity and thus has been broadly used to quantify viable cells. For quantification of NF-κB activity in this experimental setting the luciferase-derived signal from the NF-κB reporter was normalized to the Cell Tracker Green CMFDA-derived fluorescence to account for differences in cell number. Potential differences in cell viability were monitored by comparison of the Cell Tracker Green CMFDA fluorescence of the solvent vehicle treated control cells and cells treated with the indicated compounds.
(Reporter assays use an easily measured gene product as a stand-in for the process of interest.)

Data set [2] concerns the target T4, inhibitor of NF-κB kinase subunit beta (IKK2) (Homo sapiens, UniProt O14920).
T4 sequence (O14920 1-756): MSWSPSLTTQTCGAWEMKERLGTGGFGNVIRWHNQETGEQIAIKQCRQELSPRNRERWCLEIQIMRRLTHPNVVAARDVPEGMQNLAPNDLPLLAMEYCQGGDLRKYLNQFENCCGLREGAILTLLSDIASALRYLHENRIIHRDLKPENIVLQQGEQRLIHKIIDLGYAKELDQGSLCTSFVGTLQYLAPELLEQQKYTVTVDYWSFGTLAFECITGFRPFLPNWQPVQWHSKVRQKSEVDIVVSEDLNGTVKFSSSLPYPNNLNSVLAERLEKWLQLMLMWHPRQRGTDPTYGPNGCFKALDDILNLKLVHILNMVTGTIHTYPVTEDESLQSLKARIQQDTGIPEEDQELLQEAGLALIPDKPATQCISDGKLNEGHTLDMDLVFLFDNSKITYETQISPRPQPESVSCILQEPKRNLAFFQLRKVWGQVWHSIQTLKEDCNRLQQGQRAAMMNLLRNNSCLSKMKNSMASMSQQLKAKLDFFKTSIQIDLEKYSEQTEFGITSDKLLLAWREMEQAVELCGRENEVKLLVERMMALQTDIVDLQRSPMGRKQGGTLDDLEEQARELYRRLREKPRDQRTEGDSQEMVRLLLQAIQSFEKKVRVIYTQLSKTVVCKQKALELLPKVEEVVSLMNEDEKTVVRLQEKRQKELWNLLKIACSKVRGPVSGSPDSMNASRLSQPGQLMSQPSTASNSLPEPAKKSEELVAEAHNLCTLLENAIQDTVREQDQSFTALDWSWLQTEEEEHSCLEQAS
The data set can be described thus: IKK2 kinase inhibition. Type of data set: biochemical. The settings on record: at a concentration of up to 50 μM; data not shown. The source says:
Luciferase reporter gene expression reflects a downstream event of the NF-κB signaling cascade and cannot provide insights into the molecular targets contributing to the observed NF-κB inhibition. Thus, we tested the active compounds 4 and 5 for their potential to suppress the activity of the inhibitor of NF-κB kinase subunit beta (IKK2) as previously described, since it is a prominent upstream target of the NF-κB signaling cascade. […] Accordingly, this kinase is not a direct target of the NF-κB inhibiting depsides 4 and 5.

For the next data set, the system named is B16-F10 melanoma cells. The following applies: cited from earlier work.
The next data set relates to UACC-62 melanoma cells. The following applies: cited from earlier work.
In data set [3] the test system is leukocyte recruitment to the peritoneum. Description: thioglycollate-induced peritonitis, leukocyte count in peritoneal lavage. Type of data set: in vivo, C57BL/6J mice. The settings on record: mouse. The source says: C57BL/6J male, 8-9 weeks old mice were housed in individually ventilated cages and fed with mouse chow and acidified water ad libitum in the mouse facility of the Institute of Vascular Biology and Thrombosis Research (Vienna, Austria). Animal care and all experimental procedures were approved by the Animal Experimental Committee of the Medical University of Vienna and by the Austrian Ministry of Science (license no. BMWF-66.009/0117-II/3b/2012).
The mice of the treatment groups – sterile thioglycollate and perlatolic acid or thioglycollate alone - (3 animals per group) were pre-treated i.p. with 1 mL of 6 µM perlatolic acid or 1 µL of DMSO dissolved in 1 mL of saline. Thirty minutes later the animals were injected i.p. with another 3 mL of saline with or without sterile thioglycollate (4%), and containing again 2 μL DMSO or perlatolic acid. Five hours after the second injection mice were sacrificed by carbon dioxide exposure and peritoneal cavities were washed three times with 2 mL of cold PBS containing 3 mM EDTA and collected as intra-peritoneal lavage. The leukocyte count in the peritoneum of untreated control mice was assessed by lavage. Mice without thioglycollate treatment were used as controls. The volume of the collected lavage was measured and the cell count determined by haemocytometer.

The test system of another data set is 12-LO. On the set-up: method as in PMID 15636173. The following applies: cited from earlier work.
Setting [4] is: HEK293, TNF-α-stimulated HEK-293/NF-κB-luc cells, n=3, read-out: NF-κB IC50.

Like-named read-outs stand apart in the source and are kept apart here.

Description for 5-LO in PMNL: The blood was centrifuged at 4,000×g for 20 min at 20°C for preparation of leukocyte concentrates. Leukocyte concentrates were subjected to dextran sedimentation and centrifugation on LSM 1077 cushions (PAA Laboratories, Linz, Austria). Contaminating erythrocytes of pelleted PMNL were lysed by hypotonic lysis. PMNL were washed twice in ice-cold PBS and finally resuspended in PBS pH 7.4 containing 1 mg/mL glucose and 1 mM CaCl2 (PGC buffer) (purity > 96-97%).
For determination of LO products in intact PMNL (5 × 10^6), cells were resuspended in 1 mL PGC buffer, preincubated for 15 min at 37°C with test compounds or vehicle (0.1% DMSO), and incubated for 10 min at 37°C with the indicated stimuli. Thus, the Ca^2+-ionophore A23187 (2.5 µM) was added together with 20 µM AA and 10 min later the reaction was stopped on ice by addition of 1 mL of ice-cold methanol. Then, 30 µL 1 N HCL and 500 µL PBS, and 200 ng prostaglandin B1 were added and the samples were subjected to solid phase extraction on C18-columns (100 mg, UCT, Bristol, PA, USA). 5-LO products (LTB4 and its trans-isomers and 5-H(P)ETE) were analyzed by RP-HPLC and quantities calculated on the basis of the internal standard PGB1.

Consider `COc1cc(C)c(C(=O)Oc2cc(C)c(C(=O)O)c(O)c2C)c(O)c1C=O` [baeomycesic acid], for which the IC50 in the data set with 5-LO (read-out: 5-LO IC50) was 8.3 µM.

`CCOC(=O)c1c(C)cc(O)c(C=O)c1O` [compound 1, ethyl haematommate]: the IC50 was 7.6 µM at human recombinant 5-LO, greater than 10 µM at 5-LO in PMNL and greater than 10 µM in data set [1].

As for `COC(=O)c1c(C)cc(O)c(C)c1O` [compound 2, methylbetaorcinolcarboxylate], the IC50 (at human recombinant 5-LO; on 5-LO in PMNL; in data set [1]) was greater than 10 µM each time.

In the case of `COC(=O)c1c(C)cc(OC(=O)c2c(C)cc(O)c(C=O)c2O)c(C)c1O` [compound 3, atranorin], the “activity against 5-LO” value in the data set on 5-LO is “inactive”. The COX-2 inhibition in the data set with COX-2 is listed as roughly 45%. Further, the 50% inhibitory concentration (IC50) was greater than 10 µM at human recombinant 5-LO, greater than 10 µM at 5-LO in PMNL, greater than 10 µM in data set [1] and 20 µM in the data set with NF-κB (setting [4]). Also, the COX-1 inhibition in the data set on COX-1 is given as roughly 45%.

Regarding `CCCCCc1cc(OC)cc(O)c1C(=O)Oc1cc(O)c(C(=O)O)c(CCC)c1` [compound 4, imbricaric acid], the concentration for half-maximal inhibition (IC50) was found to be 3.5 µM at human recombinant 5-LO; 5.3 µM on 5-LO in PMNL; 1.9 µM in data set [1]; 2 µM with NF-κB (HEK293, read-out: NF-κB IC50). Moreover, in data set [2], the IKK2 inhibition result was “did not inhibit IKK2”.

In the case of `CCCCCc1cc(OC(=O)c2c(O)cc(OC)cc2CCCCC)cc(O)c1C(=O)O` [compound 5, perlatolic acid], the “cytotoxicity on B16-F10 melanoma cells” value in the data set on B16-F10 melanoma cells is listed as “moderate selective cytotoxicity”. Moreover, the “cytotoxicity on UACC-62 melanoma cells” value in the data set on UACC-62 melanoma cells is “moderate selective cytotoxicity”. The IC50 on human recombinant 5-LO was 0.4 µM; at 5-LO in PMNL, 1.8 µM; in data set [1], 0.4 µM; with NF-κB (setting [4]), 7 µM. In data set [2], the IKK2 inhibition entry was “did not inhibit IKK2”. For the same molecule, in data set [3] (i.p. co-administration, 5 h after TG injection, n=3, p<0.05), the “reduction of thioglycollate-induced increase in total leukocyte count in peritoneal lavage fluid” value is listed as 30-40%. Further, in data set [3] (i.p., acute inflammation model), the “toxic effects observed in the animals” value is “no hints of toxic effects”.

`CCCCCc1cc(OC)cc(O)c1C(=O)O` [compound 6, 4-O-metylolivetolcarboxylic acid]: the IC50 (on human recombinant 5-LO; on 5-LO in PMNL; in data set [1]) was greater than 10 µM throughout.

Regarding `CCCCCc1cc(OC)cc(O)c1C(=O)OCC` [compound 7, ethyl-4-O-methylolivetolcarboxylate], the IC50 (on human recombinant 5-LO; on 5-LO in PMNL; in data set [1]) was greater than 10 µM each time.

Regarding `CCCCCc1cc(O)cc(O)c1C(=O)OCC` [compound 8, ethyl olivetolate], the IC50 on human recombinant 5-LO was greater than 10 µM; on 5-LO in PMNL, 6.8 µM; in data set [1], greater than 10 µM.

With `CCCCCc1cc(O)cc(OC)c1` [compound 9, olivetolmonomethylether], the half-maximal inhibitory concentration (IC50) on human recombinant 5-LO was 7.2 µM; at 5-LO in PMNL it was greater than 10 µM; in [1], greater than 10 µM.

Consider `CCCCCc1cc(O)cc(O)c1` [compound 10, olivetol], for which the IC50 (on 5-LO in PMNL; in [1]) was greater than 10 µM each time.

Consider `CCCc1cc(O)cc(O)c1` [compound 11, divarinol], for which the IC50 (on 5-LO in PMNL; in [1]) was greater than 10 µM in each case.

`CCCCCc1c2c(cc(O)c1C(=O)O)OC(=O)c1c(cc(OC)cc1C(=O)CCCC)O2` [lobaric acid]: the IC50 with 5-LO (read-out: 5-LO IC50) and with 12-LO was no less than 28.5 µM throughout.

Regarding `C=C1C(=O)O[C@H]2[C@H]1CC/C(C)=C/CC[C@@]1(C)O[C@@H]21` [parthenolide, reference compound], in the data set with NF-κB (setting [4]), the concentration for half-maximal inhibition (IC50) is 1.5 µM.

For `CC(c1cc2ccccc2s1)N(O)C(N)=O` (stereo not drawn) [zileuton], the IC50 in the data set with 5-LO (read-out: 5-LO IC50, data from the literature) is […].
